Results taken from patent publication US20260265771A1, “METHODS OF INCREASING THE REGENERATION EFFICIENCY IN PLANTS” (Institute of Genetics and Developmental Biology Chinese …, priority 2022, published 2026).
“Also recorded” adds a separate entry of the source.

Assays:
[1] = test system: hypocotyl explants of tomato cultivar Ailsa Craig; assay: Callus formation of tomato hypocotyl explants on callus-inducing medium (CIM); assay type: cell-based
Protocol: FIG. 6—(a) Hypocotyl explants of WT (Ailsa Craig, AC) and prr mutants were cultured on callus-inducing medium (CIM) in the absence of SIPEP (REF1) and CIM REF1 at a concentration of 1 nM for 14 days, photographs of the callus formation of these plants are shown. (b) The distribution of projected callus area of WT and prr mutants grown in the absence of REF1 in a callus inducing medium (control) and in a callus inducing medium in the presence of 1 nM SIPEP (REF1). The projected area of callus was quantified by Image J. Individual values (black dots) are shown and error bars represent SD from three independent experiments.
FIG. 9—Hypocotyl explants of WT (Ailsa Craig, AC) were cultured on callus-inducing medium (CIM) containing indicated concentrations of REF1, and callus phenotype was scored 14 days after incubation. […] The projected area of callus was quantified by Image J. Individual values (black dots) are shown and error bars represent SD from three independent experiments. ***P<0.001, **P<0.01, *P<0.05 (Student's t-test).
Relative callus area was determined by quantifying the area of each callus using ImageJ, the average of each group was calculated, for each group this was then divided by the average of the control group.
To further test whether SIPEP (REF1) is a wound signal promoting regeneration in tomato, wild type, prr-1 and prr-2 Aisla Craig hypocotyl explants were cultured on a callus inducing medium in the presence and absence of SIPEP (REF1) at 1 nM. The callus phenotype was then scored at 14 days after incubation (FIG. 6), here it can be seen that presence of 1 nM REF1 in the medium increased callus area in all explants tested, crucially, the relative callus area of prr-1 and prr-2 was restored when REF1 was present in the medium.
To test the effect of the dose of SIPEP (REF1) on callus formation hypocotyl explants of WT (Ailsa Craig) were cultured on callus-inducing medium (CIM) containing indicated concentrations of REF1 in FIG. 9 (mock with 0, 10^−4, 10^−3, […], 1, and 10 nM) and callus phenotype was scored 14 days after incubation. Box plots represent the distribution of projected callus area.
Callus formation was measured in RER knock out mutants (rer-1 and rer-3) compared to wild type (WT) tomato plants (Ailsa Craig) in the presence and absence of SIPEP (REF1). […] Here it can be seen that callus area was highest in WT plant grown with REF1, as REF1 induces callus formation, as shown in Examples 2 and 4.

[2] = test system: PI126944 tomatoes; assay: Shoot regeneration of recalcitrant wild tomato PI126944; assay type: cell-based, S. peruvianum; details: PI126944, 1 nM REF1 vs REF1 absent
Protocol: (a) photos of PI126944 grown in the presence and absence of 1 nM REF1. (b) relative regeneration frequency of PI126944 grown in the presence and absence of 1 nM REF1. (c) number of hypocotyl of PI126944 grown in the presence and absence of 1 nM REF1.
(a) Photos of P126944 tomatoes (WT, PRR transformed, RER transformed, and PRR+RER transformed, grown in presence or absence of 1 nM REF1 for 19 days. (b) relative regeneration frequency of P126944 tomatoes (WT, PRR transformed, RER transformed, and PRR+RER transformed, grown in presence or absence of 1 nM REF1 for 19 days.
The effect of exogenously applied REF1 in a shoot inducing growth medium was investigated in PI126944 tomatoes by growing PI126944 tomatoes in the presence and absence of 1 nM REF1.
PI126944 tomatoes were transformed with the PRR+RER-OE construct as well as an equivalent construct only containing PRR and another construct only containing RER. Plants expressing these constructs along with a wild type control were grown in the presence or absence of REF1 for 19 days.

Sequence: ATDRRGRPPSRPKVGSGPPPQNN (listed as Solanum lycopersicum) [REF1, 23 amino acid tomato peptide cleaved from precursor PROSIPEP]
- optimum concentration to maximize callus formation ([1]; WT Ailsa Craig explants, CIM, 14 days): 1 nM
- relative callus area ([1]; WT Ailsa Craig, 10 nM REF1 compared with 1 nM): sharp decrease
- relative callus area ([1]; WT Ailsa Craig, CIM with 1 nM REF1 vs without, 14 days): induced larger callus areas; also recorded: highest
- relative callus area, dose dependence ([1]; WT Ailsa Craig, CIM, mock to 10 nM REF1, 14 days): increased in a dose dependent manner
- relative callus area ([1]; prr-1 and prr-2 mutants, CIM with 1 nM REF1, 14 days): restored
- REF1 induced callus formation (relative callus area) ([1]; rer-1 and rer-3 knockouts, presence vs absence of REF1): failing to lead to any increase; also recorded: defective
- number of hypocotyl [2]: higher
- relative regeneration frequency, increase [2]: 5.5 fold
- shoot regeneration [2]: greater shoot regeneration; also recorded: promotes shoot regeneration
